Results on three molecules are retold here after patent publication US20190119284A1, “ErbB Inhibitors and Uses Thereof” (The Regents of the University of California, priority 2016, published 2019).

Structures are written as SMILES.

Assay [1] deals with wt or T787M HER3 kinase domain. As to the kind of experiment: Thermofluor stabilization of HER3 kinase domain. Format: binding. The note with it: HER3 T787M vs wt kinase domain. The source says: FIGS. 4A-4F. Compound 2 is a selective Type I inhibitor for HER2. […] FIG. 4B: Thermal stabilization of the HER3 kinase domain by either compound 2 or ATP as determined by Thermofluor (mean±SD, n=3). FIGS. 4C-4D: The crystal structure of either erlotinib (FIG. 4C) or 2 (FIG. 4D) bound to EGFR V924R. The kinase domain in complex with compound 2 has been stabilized in the active confirmation by drug binding, despite the mutation—as evidenced by the ordered extension of the activation loop and the inward positioning of the α-C helix.
FIGS. 12A-12B. […] FIG. 12A. […] FIG. 12B. Stabilization of either wt or T787M HER3 kinase domain by compound 2 compared to DMSO as determined by thermofluor (mean value±SD, n=2).

The target of a further assay is TYRO3 (Homo sapiens, UniProt Q06418). As to the kind of experiment: Nanosyn in vitro kinase profiling: TYRO3. Format: biochemical. The procedure:
This was confirmed by in vitro profiling against a panel of kinases, with compound 2 only showing potent inhibition of EGFR and Ab1 (Table 2).
In vitro Kinome Screen. In vitro profiling of compound 2 at 100 nM was conducted by Nanosyn.

The test system of the next assay is BT-474 cells. Briefly: 72 h proliferation of BT-474 cells in the presence or absence of NRG. Format: cell-based. The following applies: BT-474, 72 h dose response +/- NRG. As to the method: FIGS. 1A-1E. NRG rescues HER2 over-expressing cancer cells from HER2 inhibitors. […] FIG 1B: Same experiment as depicted in FIG. 1A, but with the inhibitor TAK-285. FIG. 1C: The ability of NRG to rescue SK-BR-3 and BT-474 cell proliferation from HER2 inhibitors is dose dependent. Cells were treated with 1 μM of the indicated inhibitor in the presence of varying concentrations of NRG, and proliferation was read out after 72 h (mean±SD, n=3). […] FIG. 1E: Cartoon schematic of the EGFR family kinase domain asymmetric dimer. The C-terminal domain of the ‘activator’ kinase (right) interacts with the N-terminal portion of the ‘receiver’ kinase (left). This interaction stabilizes the active conformation of the receiver kinase identified by the ‘in’ conformation of the receiver kinase's α-C helix and the ordered extension of the activation loop.
FIGS. 5A-5D. […] FIG. 5A: Chemical structure of compound 3 (also referred to herein as compound 178). FIG. 5B: Proliferation curves for compound 3 against the Ba/F3 cell line panel (mean±SD, n=3). […] FIG. 5D: The same assay in FIG. 2A was performed with compound 3 in SK-BR-3 cells.

Assay [2] relates to HER2/HER3 signaling in FaDu cells. As to the kind of experiment: HER2/HER3 signaling in FaDu cells, 24 h. Format: cell-based. The following applies: dose response 24 h, compared with lapatinib. An excerpt:
FIGS. 20A-20B. […] FIG. 20A. […] FIG. 20B.

The target in another assay is MEK1 (Homo sapiens, UniProt Q02750). Briefly: Nanosyn in vitro kinase profiling: MEK1. Format: biochemical. The note with it: compound at 1 μM.
For another assay, the target named is CDK1 (Homo sapiens, UniProt P06493). As to the kind of experiment: Nanosyn in vitro kinase profiling: CDK1. It is filed as biochemical. The following applies: compound at 1 μM.
The subject of assay [3] is HER2/HER3 signaling in SK-BR-3 cells. As to the kind of experiment: HER2/HER3 signaling in SK-BR-3 cells (immunoblot). It is filed as cell-based. The following applies: serum-starved SK-BR-3 cells; drug added 15 min before NRG.
Protocol: Immunoblotting. Cells were grown in 6 well plates and treated according to the indicated conditions at which point the media was aspirated, cells were washed with 1 mL of cold PBS, which was then aspirated and the plates were frozen at −80° C. The frozen cells were thawed on the plates in a buffer containing 50 mM Tris pH 7.5, 150 mM NaCl, 1 mM EDTA, and 1% Triton X-100 supplemented with 1× phosphatase (PhoSTOP, Roche) and 1× protease (complete-mini tablets, Roche) inhibitors. Lysates were scraped, transferred to Eppendorf tubes, and cleared by centrifugation at 20,000×g for 20 min at 4° C. The clarified lysates were transferred to chilled, clean tubes, and normalized for protein concentration by Bradford (Bio-Rad). […] Primary antibodies were detected using IRDye secondary antibodies (Li-Cor) according to the manufacturer's recommendations and scanned on an Odyssey imager (Li-Cor).

TYRO3, sequence (Q06418 41-890, species assumed): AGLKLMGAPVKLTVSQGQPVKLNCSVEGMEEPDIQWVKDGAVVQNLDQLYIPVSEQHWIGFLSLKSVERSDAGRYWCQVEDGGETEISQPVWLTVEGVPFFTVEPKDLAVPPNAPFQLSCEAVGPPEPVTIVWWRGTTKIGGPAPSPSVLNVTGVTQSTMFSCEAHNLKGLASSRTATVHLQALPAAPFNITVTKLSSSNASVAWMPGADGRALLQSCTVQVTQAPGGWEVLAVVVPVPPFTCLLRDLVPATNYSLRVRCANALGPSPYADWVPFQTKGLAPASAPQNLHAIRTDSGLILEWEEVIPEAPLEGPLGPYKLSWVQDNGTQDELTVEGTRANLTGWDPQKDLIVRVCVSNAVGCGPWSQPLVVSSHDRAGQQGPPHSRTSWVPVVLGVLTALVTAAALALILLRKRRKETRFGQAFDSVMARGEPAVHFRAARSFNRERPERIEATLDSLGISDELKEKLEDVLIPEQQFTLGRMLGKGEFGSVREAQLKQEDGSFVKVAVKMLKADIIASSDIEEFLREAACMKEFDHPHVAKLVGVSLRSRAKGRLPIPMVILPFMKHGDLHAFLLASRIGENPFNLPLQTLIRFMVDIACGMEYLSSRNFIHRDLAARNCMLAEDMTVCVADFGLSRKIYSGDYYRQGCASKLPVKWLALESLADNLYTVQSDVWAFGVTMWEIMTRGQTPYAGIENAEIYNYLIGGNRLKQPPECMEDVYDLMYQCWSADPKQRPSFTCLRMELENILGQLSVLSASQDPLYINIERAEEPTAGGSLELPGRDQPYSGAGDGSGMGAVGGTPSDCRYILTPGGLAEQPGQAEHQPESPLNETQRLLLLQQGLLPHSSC
MEK1, sequence (Q02750 whole entry, species assumed): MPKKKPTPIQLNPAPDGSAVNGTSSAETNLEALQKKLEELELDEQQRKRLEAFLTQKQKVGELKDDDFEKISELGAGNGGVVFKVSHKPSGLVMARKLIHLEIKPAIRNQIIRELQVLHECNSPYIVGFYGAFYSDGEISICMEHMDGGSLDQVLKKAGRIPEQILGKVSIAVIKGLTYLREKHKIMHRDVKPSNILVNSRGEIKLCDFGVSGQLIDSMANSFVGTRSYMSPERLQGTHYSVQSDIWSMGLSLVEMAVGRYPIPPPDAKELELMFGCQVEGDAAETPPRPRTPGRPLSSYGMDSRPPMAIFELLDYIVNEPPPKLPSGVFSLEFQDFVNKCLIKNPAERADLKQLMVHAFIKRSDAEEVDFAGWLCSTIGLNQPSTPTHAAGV
CDK1, sequence (P06493 whole entry, species assumed): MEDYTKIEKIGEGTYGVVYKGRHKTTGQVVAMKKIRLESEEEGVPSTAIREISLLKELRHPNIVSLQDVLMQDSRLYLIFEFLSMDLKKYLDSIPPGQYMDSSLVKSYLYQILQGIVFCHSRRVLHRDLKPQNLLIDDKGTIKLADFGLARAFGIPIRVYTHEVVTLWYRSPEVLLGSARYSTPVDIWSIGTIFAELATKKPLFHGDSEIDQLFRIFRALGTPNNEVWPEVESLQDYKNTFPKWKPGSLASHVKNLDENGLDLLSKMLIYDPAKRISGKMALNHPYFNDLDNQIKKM
CDK1, sequence (P14635 whole entry partner, species assumed): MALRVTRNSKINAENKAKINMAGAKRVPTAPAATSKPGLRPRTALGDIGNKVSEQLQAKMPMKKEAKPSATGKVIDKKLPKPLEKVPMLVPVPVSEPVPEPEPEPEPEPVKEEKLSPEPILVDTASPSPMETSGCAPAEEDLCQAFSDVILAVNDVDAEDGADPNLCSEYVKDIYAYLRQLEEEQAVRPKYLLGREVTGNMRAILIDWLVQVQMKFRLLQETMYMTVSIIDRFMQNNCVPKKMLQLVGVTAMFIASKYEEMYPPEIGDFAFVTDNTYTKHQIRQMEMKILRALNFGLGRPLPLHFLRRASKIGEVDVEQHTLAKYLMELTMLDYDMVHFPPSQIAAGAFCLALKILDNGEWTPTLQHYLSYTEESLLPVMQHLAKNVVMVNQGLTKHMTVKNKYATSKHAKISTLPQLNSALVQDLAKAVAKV

On to `COc1ccc(-c2ccco2)cc1Nc1ncnc2[nH]nc(-c3ccco3)c12` [compound 2, 3-(furan-2-yl)-N-(5-(furan-2-yl)-2-methoxyphenyl)-1H-pyrazolo[3,4-d]pyrimidin-4-amine], for which, in assay [1], the “effect of gatekeeper mutation on binding affinity” value is listed as “reduces the binding affinity”. For the same molecule, at 0.1 µM the inhibition on TYRO3 (compound at 100 nM) was 3.29%. Also, the inhibition – broadly, the relative decrease from the control value, in per cent – at 1 µM against TYRO3 (compound at 1 μM) came to 5.56%.
As for `COc1ccc(-c2ccoc2)cc1Nc1ncnc2[nH]cc(-c3cc[nH]n3)c12` [compound 3, N-(5-(furan-3-yl)-2-methoxyphenyl)-5-(1H-pyrazol-3-yl)-7H-pyrrolo[2,3-d]pyrimidin-4-amine], the “sensitivity of proliferation inhibition to NRG” value in the assay on BT-474 cells was “insensitive to the presence of NRG”. Besides, the “inhibition of pHER3 and downstream signaling” value in assay [2] was “better able to inhibit pHER3 and its downstream signaling pathways”. In addition, the inhibition at 1 µM came out at 66% on MEK1 and 18% at CDK1.
Turning to `CS(=O)(=O)CCNCc1ccc(-c2ccc3ncnc(Nc4ccc(OCc5cccc(F)c5)c(Cl)c4)c3c2)o1` [lapatinib], the “concentration sufficient to inhibit the entire RTK signaling pathway” value in assay [3] is “greater than 100 nM”.
